For one experiment, the system named is postpartum sows. Put plainly: Single timed deslorelin injection 96 hours post-weaning with single timed insemination, no estrus detection (Example 3). It counts as in vivo, swine. Particulars: 50 mcg in SAIB at 96 hours post-weaning; single insemination 28+/-2 hours later. On the procedure:
Approximately 170 postpartum sows were randomly divided into two equal groups comprised of controls and treated. Following weaning, the controls were detected for estrus and bred following the normal standard operating procedures for the farms on which they resided. The treated sows received a 50 mcg dose of deslorelin in SAIB at 96 hours post-weaning and were bred with a single insemination 28+/−2 hours later with no regard to estrus detection. The sows were examined for pregnancy by ultrasound at 21 days and slaughtered around 28 days post breeding. The entire reproductive tract was removed and corpora lutea and embryos were counted.

In a further experiment the test system is mature postpartum sows. Nature of the experiment: Intravulvar deslorelin at estrus detection with AI in mature postpartum sows (Example 2). In kind it is in vivo, swine. The settings on record: 50 μg deslorelin acetate intravulvar at first estrus detection, then AI again if in estrus the next day. As for the experimental part:
Sows were assigned randomly in blocks of two to either control or to be injected intravulvar with 50 mcg of deslorelin in SAIB at the time of estrus detection for sows first detected in estrus in the a.m. and 12 hours later for those first detected in estrus in the p.m. Treated animals were bred AI upon detected estrus and again 24 hours later if still in estrus. Controls received a saline injection on first detected estrus behavior estrus detection and were bred according to the farm's normal procedures.

Take `CCNC(=O)[C@@H]1CCCN1C(=O)[C@H](CCCN=C(N)N)NC(=O)[C@H](CC(C)C)NC(=O)[C@@H](Cc1c[nH]c2ccccc12)NC(=O)[C@H](Cc1ccc(O)cc1)NC(=O)[C@H](CO)NC(=O)[C@H](Cc1c[nH]c2ccccc12)NC(=O)[C@H](Cc1cnc[nH]1)NC(=O)[C@@H]1CCC(=O)N1` [Deslorelin, deslorelin]: in the experiment with postpartum sows, the “Embryo Survival” value is listed as 64%. The “Pregnancy Rate” value in the experiment on mature postpartum sows came to 91%.

(Values after patent publication US9351818B2, “Process for the synchronization of ovulation for timed breeding without heat detection” (priority 2003, dated 2016).)
